Legend:
[1] = Body weight, BLM rat model, combination study (Example 3); assay type: in vivo, rat (male Sprague Dawley); details: BLM-induced rats; Nintedanib, Pirfenidone or Test Article (HRS^FC1 3 mg/kg IV weekly), alone or in combination, from Day 9
Procedure: PBS or BLM was administered under isoflurane anesthesia. Excess rats were induced with BLM and used to replace any animals with excessive body weight loss.
All treatments commenced on Day 9.
In-life, body weights were measured and clinical observations were conducted daily. On Days 8, 15 and 21, animals were removed from their home cages and placed individually into whole body plethysmography chambers. After a 20-minute acclimatization phase, respiratory parameters were recorded for 10 minutes. Pre-study and on Days 10 and Day 17, whole blood was obtained from the tail vein and processed to serum for measurement of HRS^FC1.

[2] = test system: bleomycin-induced lung inflammation; test: Interstitial/alveolar inflammatory cell infiltrate score, BLM rat model, combination study (Example 3); assay type: in vivo, rat (male Sprague Dawley); details: BLM-induced rats; alone or in combination, vs PO plus IV vehicles; data not shown
Procedure: (§1) The five lung lobes were collected and weighed. On Day 17, the right accessory lobe was retained and desiccated to obtain dry weight. The remaining right lung lobes were inflated and fixed in 10% neutral buffered formalin and embedded in paraffin for histological analysis. An approximately 50 mg piece of the left lung lobe was snap frozen and stored at −80° C. for potential RNA analysis. The remainder of the lobe was also snap frozen until analyzed for collagen content.
(§2) Sections for histology were stained using picrosirius red and were scored in a blinded fashion (1 score for each of the 3-4 lobes) by a veterinary pathologist using a modified Ashcroft score (Hubner et al., 2008). Hydroxyproline content was determined in the left lung lobe using a mass spectrometry method.
(§3) Slides were read by a veterinary pathologist and each of the 3 lobes evaluated was assigned 4 score types [Ashcroft for fibrosis (scores range from 0 to 8), perivascular/peribronchiolar inflammatory cell infiltrate (scores range from 0 to 5), interstitial/alveolar inflammatory cell infiltrate (scores range from 0 to 5), type II pneumocyte hyperplasia (scores range from 0 to 5)].

[3] = test system: bleomycin-induced lung fibrosis; test: Histological fibrosis (modified Ashcroft) score, BLM rat model (Example 2); assay type: in vivo, rat (male Sprague Dawley); details: BLM-induced rats
Procedure: as §1, with “weighed.” for “weighed. On Day 17, the right accessory lobe was retained and desiccated to obtain dry weight.”, “The” for “The remaining”
as §2, with “4” for “3-4”
as §3, with “4” for “3”, “scores” for “score types”
Having noted the high variability in mean Ashcroft Index Scores within groups and also in lung pathology within each individual due to the focal nature of the model, we analyzed Ashcroft scores from all fields scored (4 per animal), which increased the number of observations to 24-32 in BLM-induced groups.

[4] = test system: bleomycin-induced lung fibrosis; test: Histological fibrosis (modified Ashcroft) score, BLM rat model, combination study (Example 3); assay type: in vivo, rat (male Sprague Dawley); details: BLM-induced rats; alone or in combination, vs PO plus IV vehicles; data not shown
Procedure: as §1, §2, §3

[5] = test system: bleomycin-induced respiratory impairment; test: Respiratory measurements by whole body plethysmography, BLM rat model (Example 2, Table E4); assay type: in vivo, rat (male Sprague Dawley); details: for Expiratory Time / Inspiratory Time / Peak Expiratory Flow / Peak Inspiratory Flow / Tidal Volume / Respiratory Rate / Respiratory Minute Volume: Ninte. 60 mg/kg PO daily from Day 1, mean; for Respiratory Rate: in breaths/min (unit assumed); for Respiratory Minute Volume: in mL/min (unit assumed)
Procedure: PBS or BLM was administered under isoflurane anesthesia.
In-life, body weights were measured and clinical observations were conducted daily. On Day 8 and Day 15, animals were removed from their home cages and placed individually into whole body plethysmography chambers. After a 20-minute acclimatization phase, respiratory parameters were recorded for 10 minutes.

[6] = Body weight, BLM mouse model (Example 1); assay type: in vivo, mouse (male C57Bl/6J); details: BLM-induced mice; daily PO from Day 0: dexamethasone 0.25 mg/kg, Nintedanib 60 mg/kg
Procedure: (§4) Lung inflammation and fibrosis were induced in male C57Bl/6J mice by oropharyngeal administration of BLM. After the habituation phase mice were randomized based on body weight over the different groups. Under isoflurane anesthesia, 50 μl PBS or BLM was dripped onto the vocal cords facilitating aspiration. Mice were sacrificed at day 21 using a terminal bleed under isoflurane anesthesia.
(§5) Daily oral treatments commenced on Day 0, while daily IV treatments commenced on Day 8. Dosing was planned to continue until the day of termination (Day 21), however, due to high mortality in IV treated groups (see results), IV dosing was skipped on Day 19 and Day 20. […] Subsequently, the mice received 8% D20 (Kinemed, Emeryville) drinking water until sacrifice to maintain labeling of newly formed collagen. Body weight was monitored three times a week.

[7] = test system: bleomycin-induced lung fibrosis; test: Survival, BLM-induced lung fibrosis mouse model (Example 1, Table E2); assay type: in vivo, mouse (male C57Bl/6J); details: for Survival (number of animals surviving to study day): Ninte. 60 mg/kg PO, BLM mice, 12 at start
Procedure: as §4, §5
The study commenced with 7 animals in the non-diseased control group and 12 animals in the BLM-induced groups. Survival is show in Table E2 below.

Structure (SMILES): COC(=O)c1ccc2c(c1)NC(=O)/C2=C(\Nc1ccc(N(C)C(=O)CN2CCN(C)CC2)cc1)c1ccccc1 [Nintedanib, nintedanib]
- Body weight curves vs respective controls [1]: None of the groups treated with Nintedanib, Pirfenidone or Test Article alone or in combination had body weight curves that significantly differed
- Interstitial inflammatory cell infiltrate [2]: no significant effect
- Decrease of group mean Ashcroft score vs respective vehicle ([3]; Day 22, Nintedanib PO, Test Article = HRS^FC1 1 mg/kg IV on Days 2, 9 and 16, not significant): 5%
- Group mean Ashcroft score, significance vs respective vehicle ([3]; Day 22, Nintedanib PO, Test Article = HRS^FC1 IV): did not meet statistical criteria
- Overall effects in this experiment ([3]; Nintedanib (50 mg/kg/dose) starting on Day 9, as printed in Summary): no significant effects
- Interstitial inflammatory cell infiltrate (as printed in the Ashcroft score paragraph) [4]: no significant effect
- BLM-induced alterations in respiratory parameters ([5]; BLM-induced rats, Day 15, Nintedanib 60 mg/kg PO, Test Article = HRS^FC1 IV weekly): did not significantly impact
- Respiratory minute volume (RMV) ([5]; BLM-induced rats, Day 15, Nintedanib PO, Test Article = HRS^FC1 0.1-3 mg/kg from Day 9 or Day 2, FIG. 3): no impact on RMV
- Expiratory Time ([5]; Day 8): 0.12 s
- Inspiratory Time ([5]; Day 8): 0.09 s
- Peak Expiratory Flow ([5]; Day 8): 28.4
- Peak Inspiratory Flow ([5]; Day 8): 26.7
- Tidal Volume ([5]; Day 8): 1.5 mL
- Respiratory Rate ([5]; Day 8): 313.0
- Respiratory Minute Volume ([5]; Day 8): 477.5
- Expiratory Time ([5]; Day 15): 0.12 s
- Inspiratory Time ([5]; Day 15): 0.09 s
- Peak Expiratory Flow ([5]; Day 15): 28.8
- Peak Inspiratory Flow ([5]; Day 15): 29.0
- Tidal Volume ([5]; Day 15): 1.6 mL
- Respiratory Rate ([5]; Day 15): 317.3
- Respiratory Minute Volume ([5]; Day 15): 534.6
- Body weight, of initial body weights [6]: around 90%
- Survival rate ([7]; BLM-induced mice to Day 21, daily PO from Day 0: dexamethasone 0.25 mg/kg, Nintedanib 60 mg/kg): 92%
- Survival (number of animals surviving to study day) ([7]; Day 11): 12
- Survival (number of animals surviving to study day) ([7]; Day 12): 12
- Survival (number of animals surviving to study day) ([7]; Day 13): 12
- Survival (number of animals surviving to study day) ([7]; Day 14): 12
- Survival (number of animals surviving to study day) ([7]; Day 15): 12
- Survival (number of animals surviving to study day) ([7]; Day 16): 12
- Survival (number of animals surviving to study day) ([7]; Day 17): 12
- Survival (number of animals surviving to study day) ([7]; Day 18): 12
- Survival (number of animals surviving to study day) ([7]; Day 19): 12
- Survival (number of animals surviving to study day) ([7]; Day 20): 12
- Survival (number of animals surviving to study day) ([7]; Day 21): 11

— patent US11767520B2, “Compositions and methods for treating lung inflammation” (aTyr Pharma, Inc., priority 2017, dated 2023)
